From US8481531B2, “Bicyclic heterocyclyl derivatives as FGFR kinase inhibitors for therapeutic use” (Astex Therapeutics Ltd, priority 2009, dated 2013) come the findings set out here.

The target of one assay is T1, FGFR3 (Homo sapiens, UniProt P22607).
T1 construct: purchased Upstate
The assay can be described thus: FGFR3 in vitro kinase inhibitory activity assay (TRF). As to conditions: 8 μM ATP, 3 hours; read-out: FGFR3 IC50(μM) or % I. The class given is biochemical. As for the experimental part: (§1) FGFR3, VEGFR2 and PDGFR in vitro Kinase Inhibitory Activity Assays
(§2) Enzymes (from Upstate), prepared at 2× final concentration, were incubated with test compounds, biotinylated Flt3 substrate (biotin-VASSDNEYFYVDF) (Cell Signalling Technology Inc.) and ATP in the appropriate assay buffer (Table 1). The reaction was allowed to proceed for 3 hours (FGFR3), 1 hour (VEGFR2, PDGFR-beta) at room temperature on a plate shaker at 700 rpm before being stopped with 35 mM EDTA, pH 8 (FGFR3, VEGFR2) or 55 mM EDTA, pH 8 (PDGFR-beta). 5× detection mix (50 mM HEPES pH 7.5, 0.1% BSA, 11.34 nM Eu-anti-pY (PY20) (PerkinElmer) 74 nM SA-XL665 (Cisbio) for FGFR3, 50 mM HEPES, pH 7.5, 0.1% BSA, 11.34 nM Eu-anti-pY (PY20), 187.5 nM SA-XL665 for VEGFR2 and 50 mM HEPES, pH 7.5, 0.1% BSA, 11.34 nM Eu-anti-pY (PT66) (PerkinElmer), 375 nM SA-XL665 (Cisbio) for PDGFR-beta) was then added to each well and the plate sealed and incubated at room temperature for one hour on a plate shaker at 700 rpm. The plate was then read on a Packard Fusion plate reader or a BMG Pherastar both in TRF mode.

For another assay, the target named is T2, VEGFR2 (Homo sapiens, UniProt P35968).
T2 construct: purchased Upstate
T2 sequence (P35968 20-1356): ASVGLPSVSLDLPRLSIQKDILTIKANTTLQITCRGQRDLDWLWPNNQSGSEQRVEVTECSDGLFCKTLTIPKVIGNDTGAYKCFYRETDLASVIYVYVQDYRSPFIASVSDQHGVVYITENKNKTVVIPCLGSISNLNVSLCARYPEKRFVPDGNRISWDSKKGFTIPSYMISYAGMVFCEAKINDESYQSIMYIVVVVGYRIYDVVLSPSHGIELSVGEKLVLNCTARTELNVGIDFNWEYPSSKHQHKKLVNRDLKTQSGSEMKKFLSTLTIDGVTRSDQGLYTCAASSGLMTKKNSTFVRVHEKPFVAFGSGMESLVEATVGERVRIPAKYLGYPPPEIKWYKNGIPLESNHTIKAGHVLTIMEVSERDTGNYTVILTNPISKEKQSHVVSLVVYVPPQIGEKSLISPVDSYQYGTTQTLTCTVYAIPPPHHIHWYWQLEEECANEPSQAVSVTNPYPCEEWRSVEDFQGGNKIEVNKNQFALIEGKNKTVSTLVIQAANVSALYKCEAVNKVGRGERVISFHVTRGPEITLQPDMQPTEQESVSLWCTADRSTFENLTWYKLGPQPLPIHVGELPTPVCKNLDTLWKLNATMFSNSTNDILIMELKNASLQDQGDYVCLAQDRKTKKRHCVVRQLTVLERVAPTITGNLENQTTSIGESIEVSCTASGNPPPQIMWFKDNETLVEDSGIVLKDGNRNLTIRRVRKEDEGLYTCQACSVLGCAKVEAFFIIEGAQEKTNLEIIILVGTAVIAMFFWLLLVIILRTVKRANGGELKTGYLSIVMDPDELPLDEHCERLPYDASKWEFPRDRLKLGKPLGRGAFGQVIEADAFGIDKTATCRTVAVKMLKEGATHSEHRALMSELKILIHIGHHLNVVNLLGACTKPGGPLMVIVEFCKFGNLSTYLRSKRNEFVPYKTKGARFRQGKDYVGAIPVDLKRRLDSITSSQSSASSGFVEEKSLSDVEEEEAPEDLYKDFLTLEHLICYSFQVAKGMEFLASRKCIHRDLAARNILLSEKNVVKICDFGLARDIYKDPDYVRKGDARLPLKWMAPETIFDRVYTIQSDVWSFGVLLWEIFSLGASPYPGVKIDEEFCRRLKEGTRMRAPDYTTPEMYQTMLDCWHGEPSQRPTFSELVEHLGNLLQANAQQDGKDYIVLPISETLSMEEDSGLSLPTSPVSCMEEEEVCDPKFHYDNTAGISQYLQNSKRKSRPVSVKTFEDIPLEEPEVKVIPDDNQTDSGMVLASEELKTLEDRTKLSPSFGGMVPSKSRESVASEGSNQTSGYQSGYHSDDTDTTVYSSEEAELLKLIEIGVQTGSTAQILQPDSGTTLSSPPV
In words: VEGFR2 in vitro kinase inhibitory activity assay (TRF). The class given is biochemical. As to conditions: 0.5 μM ATP, 1 hour; read-out: VEGFR2 IC50(μM) or % I. On the procedure:
as §1, §2

Assay [1] deals with parental wild-type Ba/F3 cells. The assay can be described thus: Ba/F3 (WT) cell proliferation assay (Alamar Blue). The class given is cell-based. As to conditions: BaF3, 72 hours, read-out: BaF3 WT prolif; for inhibition at 10 µM / inhibition at 3 µM: Mus musculus; for IC50: with mouse IL-3. On the procedure: (§3) Ba/F3-TEL-FGFR3 & Ba/F3 (WT) Cell Proliferation Assays
(§4) Stably transfected Ba/F3-TEL-FGFR3 cells were plated out into black 96-well tissue culture plates with clear bottoms in RPMI medium containing 10% FBS and 0.25 mg/ml G418 at a density of 5×10^3 cells/well (200 μl per well). The parental wild-type Ba/F3 cells (DSMZ no.: ACC 300) were plated out into black 96-well tissue culture plates with clear bottoms in RPMI medium containing 10% FBS and 2 ng/ml mouse IL-3 (R&D Systems) at a density of 2.5×10^3 cells/well (200 μl per well). Plates were placed in an incubator overnight before adding the compounds the following day. Dilutions of compounds were made in DMSO starting at 10 mM and were diluted into the wells to give a final DMSO concentration of 0.1% in assay. Compounds were left on the cells for 72 hours before the plates were removed from the incubator and 20 μl of Alamar Blue™ (Biosource) was added to each well. Plates were placed in the incubator for 4-6 hours before reading plates at 535 nm (excitation)/590 nm (emission) on a Fusion plate reader (Packard). Where inhibition is high an IC50 can be determined.
A general note: The colour change of resazurin is a common sign of viable cells or microbes.

The target in another assay is T3, Ba/F3-TEL-FGFR3 cells (Homo sapiens, UniProt P22607).
T3 construct: fused on or other part: P41212 (Transcription factor ETV6)
T3 sequence (P22607 whole entry, change not shown, the tested form may be a part): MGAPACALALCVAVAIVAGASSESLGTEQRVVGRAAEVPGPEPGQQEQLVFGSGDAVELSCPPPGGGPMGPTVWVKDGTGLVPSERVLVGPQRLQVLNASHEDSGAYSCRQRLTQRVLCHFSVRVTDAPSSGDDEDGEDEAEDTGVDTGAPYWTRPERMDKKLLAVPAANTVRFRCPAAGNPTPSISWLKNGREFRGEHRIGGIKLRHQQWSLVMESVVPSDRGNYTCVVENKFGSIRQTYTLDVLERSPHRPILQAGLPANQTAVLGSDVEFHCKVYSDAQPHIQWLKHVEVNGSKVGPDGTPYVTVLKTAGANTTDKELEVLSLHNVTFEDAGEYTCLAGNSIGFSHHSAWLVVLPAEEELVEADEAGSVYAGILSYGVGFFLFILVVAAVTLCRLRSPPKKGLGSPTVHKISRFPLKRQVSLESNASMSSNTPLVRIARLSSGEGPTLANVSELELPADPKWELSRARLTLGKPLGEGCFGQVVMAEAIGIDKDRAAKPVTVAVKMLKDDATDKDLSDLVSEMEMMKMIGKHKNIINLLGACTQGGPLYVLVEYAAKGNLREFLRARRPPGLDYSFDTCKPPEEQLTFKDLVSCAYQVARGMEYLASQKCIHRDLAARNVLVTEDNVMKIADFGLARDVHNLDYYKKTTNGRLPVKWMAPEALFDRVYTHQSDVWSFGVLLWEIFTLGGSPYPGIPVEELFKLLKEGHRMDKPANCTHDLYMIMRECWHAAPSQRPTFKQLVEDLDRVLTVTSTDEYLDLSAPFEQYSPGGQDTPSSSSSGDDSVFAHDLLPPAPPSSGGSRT
In words: Ba/F3-TEL-FGFR3 cell proliferation assay (Alamar Blue). Format: cell-based. The settings on record: 72 hours; for BaF3-TEL-FGFR3 prolif (μM): % at 10.0 μM; for GI50: read-out: BaF3-TEL-FGFR3 prolif. On the procedure:
as §3, §4

T1 sequence (P22607 23-806): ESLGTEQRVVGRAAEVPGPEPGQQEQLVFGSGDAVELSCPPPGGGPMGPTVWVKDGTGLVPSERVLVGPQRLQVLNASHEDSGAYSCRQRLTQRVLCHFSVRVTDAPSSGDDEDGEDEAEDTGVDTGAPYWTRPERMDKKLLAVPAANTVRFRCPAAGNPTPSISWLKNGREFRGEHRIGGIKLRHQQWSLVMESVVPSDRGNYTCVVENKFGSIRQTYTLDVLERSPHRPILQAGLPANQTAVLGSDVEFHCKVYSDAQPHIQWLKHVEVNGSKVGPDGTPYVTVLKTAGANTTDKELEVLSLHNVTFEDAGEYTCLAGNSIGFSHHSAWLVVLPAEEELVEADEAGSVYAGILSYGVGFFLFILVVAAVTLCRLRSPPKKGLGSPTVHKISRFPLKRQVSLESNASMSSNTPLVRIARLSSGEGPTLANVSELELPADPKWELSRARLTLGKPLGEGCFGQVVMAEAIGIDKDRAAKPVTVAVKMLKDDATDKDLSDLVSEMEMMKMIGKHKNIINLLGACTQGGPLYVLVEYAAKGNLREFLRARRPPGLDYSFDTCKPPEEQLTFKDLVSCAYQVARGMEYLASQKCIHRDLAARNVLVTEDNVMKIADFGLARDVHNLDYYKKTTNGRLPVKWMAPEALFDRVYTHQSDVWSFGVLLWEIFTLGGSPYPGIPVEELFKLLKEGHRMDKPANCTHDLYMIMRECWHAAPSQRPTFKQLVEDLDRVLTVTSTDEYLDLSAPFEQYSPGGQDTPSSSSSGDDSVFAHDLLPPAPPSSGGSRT

As for `CN1CCC(NCCCON=Cc2ccn3c(-c4cccc(NC(=O)NCC(F)(F)F)c4)cnc3c2)CC1` [Compound 1-34, 1-[3-(7-{[3-(1-Methyl-piperidin-4-ylamino)-propoxyimino]-methyl}-imidazo[1,2-a]pyridin-3-yl)-phenyl]-3-(2,2,2-trifluoro-ethyl)-urea], the IC50 is 0.038 µM on FGFR3 and 0.26 µM at VEGFR2. Further, the inhibition at 10 µM in assay [1] is 0%. In addition, the “BaF3-TEL-FGFR3 prolif (μM)” value on Ba/F3-TEL-FGFR3 cells is on record as 60.0% at.
Consider `O=C(NCC(F)(F)F)Nc1cccc(-c2cnc3cc(C=NOCCCN4CCCC4)ccn23)c1` [Compound 1-35, 1-(3-{7-[(3-Pyrrolidin-1-yl-propoxyimino)-methyl]-imidazo[1,2-a]pyridin-3-yl}-phenyl)-3-(2,2,2-trifluoro-ethyl)-urea], for which the values for the IC50 on FGFR3 and on VEGFR2 were 0.023 µM and 0.33 µM, respectively. Also, the inhibition at 3 µM in assay [1] was found to be 28%. The GI50 on Ba/F3-TEL-FGFR3 cells was 560 nM.
Consider `COC1CCN(CCCON=Cc2ccn3c(-c4cccc(NC(=O)NCC(F)(F)F)c4)cnc3c2)CC1` [Compound 1-36, 1-[3-(7-{[3-(4-Methoxy-piperidin-1-yl)-propoxyimino]-methyl}-imidazo[1,2-a]pyridin-3-yl)-phenyl]-3-(2,2,2-trifluoro-ethyl)-urea], for which the values for the IC50 at FGFR3 and at VEGFR2 were 0.024 µM and 0.36 µM, respectively. In addition, the inhibition at 3 µM in assay [1] came out at 34%. Moreover, at Ba/F3-TEL-FGFR3 cells, the GI50 is 380 nM.
As for `O=C(NCC(F)(F)F)Nc1cccc(-c2cnc3cc(C=NOCCCNC4CCOCC4)ccn23)c1` [Compound 1-37, 1-[3-(7-{[3-(Tetrahydro-pyran-4-ylamino)-propoxyimino]-methyl}-imidazo[1,2-a]pyridin-3-yl)-phenyl]-3-(2,2,2-trifluoro-ethyl)-urea], the IC50 on FGFR3 is 0.028 µM; at VEGFR2 it was 0.27 µM. Also, the inhibition at 10 µM in assay [1] worked out at 43%. The GI50 at Ba/F3-TEL-FGFR3 cells is 3500 nM.
`O=C(NCC(F)(F)F)Nc1cccc(-c2cnc3cc(C=NOCCCN4CCC(O)C4)ccn23)c1` (stereo not shown) [Compound 1-38, 1-[3-(7-{[3-(3-Hydroxy-pyrrolidin-1-yl)-propoxyimino]-methyl}-imidazo[1,2-a]pyridin-3-yl)-phenyl]-3-(2,2,2-trifluoro-ethyl)-urea]: the IC50 at FGFR3 is 0.026 µM; at VEGFR2, 0.39 µM. The inhibition at 10 µM in assay [1] turned out to be 21%. Further, the GI50 at Ba/F3-TEL-FGFR3 cells worked out at 1800 nM.
As for `O=C(NCC(F)(F)F)Nc1cccc(-c2cnc3cc(C=NOCCCN4CCN(CCO)CC4)ccn23)c1` [Compound 1-39, 1-{3-[7-({3-[4-(2-Hydroxy-ethyl)-piperazin-1-yl]-propoxyimino}-methyl)-imidazo[1,2-a]pyridin-3-yl]-phenyl}-3-(2,2,2-trifluoro-ethyl)-urea], the IC50 at FGFR3 is 0.025 µM; on VEGFR2, 0.39 µM. Also, in assay [1], the inhibition at 3 µM was determined as 47%. Further, the GI50 at Ba/F3-TEL-FGFR3 cells was determined as 1300 nM.
With `COCCN(CCON=Cc1ccn2c(-c3cccc(NC(=O)NCC(F)(F)F)c3)cnc2c1)Cc1ccccc1` [Compound 1-41, 1-{3-[7-({2-[Benzyl-(2-methoxy-ethyl)-amino]-ethoxyimino}-methyl)-imidazo[1,2-a]pyridin-3-yl]-phenyl}-3-(2,2,2-trifluoro-ethyl)-urea], the results for the IC50 (at FGFR3; at VEGFR2; in assay [1]) were 0.0551 µM, 1.79 µM and 5.9 µM, respectively. The GI50 on Ba/F3-TEL-FGFR3 cells was determined as 860 nM.
`CN(CCON=Cc1ccn2c(-c3cccc(NC(=O)NCC(F)(F)F)c3)cnc2c1)CCS(C)(=O)=O` [Compound 1-42, 1-{3-[7-({2-[(2-Methanesulfonyl-ethyl)-methyl-amino]-ethoxyimino}-methyl)-imidazo[1,2-a]pyridin-3-yl]-phenyl}-3-(2,2,2-trifluoro-ethyl)-urea]: the IC50 at FGFR3 is 0.017 µM; on VEGFR2, 0.54 µM. Moreover, the inhibition at 10 µM in assay [1] worked out at 10%. For the same compound, the GI50 on Ba/F3-TEL-FGFR3 cells was 1300 nM.
With `O=C(NCC(F)(F)F)Nc1cccc(-c2cnc3cc(C=NOCC(O)CN4CCC(O)CC4)ccn23)c1` (stereo not shown) [Compound 1-43, 1-[3-(7-{[2-Hydroxy-3-(4-hydroxy-piperidin-1-yl)-propoxyimino]-methyl}-imidazo[1,2-a]pyridin-3-yl)-phenyl]-3-(2,2,2-trifluoro-ethyl)-urea], the IC50 was found to be 0.024 µM at FGFR3 and 0.52 µM at VEGFR2. Moreover, the inhibition at 10 µM in assay [1] stood at 0%. The GI50 on Ba/F3-TEL-FGFR3 cells worked out at 6600 nM.
With `COCCO/N=C(\C)c1ccn2c(-c3cccc(NC(=O)NCC(F)(F)F)c3)cnc2c1` [Compound 1-45, 1-[3-(7-{1-[2-Methoxy-ethoxyimino]-ethyl}-imidazo[1,2-a]pyridin-3-yl)-phenyl]-3-(2,2,2-trifluoro-ethyl)-urea], the IC50 was determined as 0.0041 µM on FGFR3, 0.068 µM on VEGFR2 and 4 µM in assay [1]. Besides, the GI50 at Ba/F3-TEL-FGFR3 cells turned out to be 48 nM.
`C/C(=N\OCCOCCO)c1ccn2c(-c3cccc(NC(=O)NCC(F)(F)F)c3)cnc2c1` [Compound 1-46, 1-[3-(7-{1-[2-(2-Hydroxy-ethoxy)-ethoxyimino]-ethyl}-imidazo[1,2-a]pyridin-3-yl)-phenyl]-3-(2,2,2-trifluoro-ethyl)-urea]: the figures for the IC50 at FGFR3 and on VEGFR2 were 0.0031 µM and 0.068 µM, respectively. Besides, the inhibition at 10 µM in assay [1] amounted to 39%. Further, the GI50 on Ba/F3-TEL-FGFR3 cells was determined as 32 nM.
For `C/C(=N\OCCCO)c1ccn2c(-c3cccc(NC(=O)NCC(F)(F)F)c3)cnc2c1` [Compound 1-47, 1-[3-(7-{1-[3-Hydroxy-propoxyimino]-ethyl}-imidazo[1,2-a]pyridin-3-yl)-phenyl]-3-(2,2,2-trifluoro-ethyl)-urea], the values for the IC50 at FGFR3 and on VEGFR2 were 0.0023 µM and 0.051 µM, respectively. In assay [1], the inhibition at 10 µM came out at 63%. In addition, the “BaF3-TEL-FGFR3 prolif (μM)” value on Ba/F3-TEL-FGFR3 cells worked out at 0.000% at.
`COCCN1CCC(CCON=Cc2ccn3c(-c4cccc(NC(=O)NCC(F)(F)F)c4)cnc3c2)CC1` [Compound 1-48, 1-{3-[7-({2-[1-(2-Methoxy-ethyl)-piperidin-4-yl]-ethoxyimino}-methyl)-imidazo[1,2-a]pyridin-3-yl]-phenyl}-3-(2,2,2-trifluoro-ethyl)-urea]: the IC50 on FGFR3 is 0.023 µM; on VEGFR2 it was 0.4 µM; in assay [1], 1.8 µM. For the same compound, the GI50 on Ba/F3-TEL-FGFR3 cells was 600 nM.
As for `O=C(NCC(F)(F)F)Nc1cccc(-c2cnc3cc(C=NOCCC4CCN(CCO)CC4)ccn23)c1` [Compound 1-49, 1-{3-[7-({2-[1-(2-Hydroxy-ethyl)-piperidin-4-yl]-ethoxyimino}-methyl)-imidazo[1,2-a]pyridin-3-yl]-phenyl}-3-(2,2,2-trifluoro-ethyl)-urea], the IC50 was determined as 0.019 µM on FGFR3 and 0.33 µM at VEGFR2. Further, in assay [1], the inhibition at 3 µM turned out to be 36%. Besides, the GI50 at Ba/F3-TEL-FGFR3 cells worked out at 1400 nM.
For the compound `O=C(NCC(F)(F)F)Nc1cccc(-c2cnc3cc(C(=NO)C4CC4)ccn23)c1` [Compound 1-50, 1-[3-(7-{Cyclopropyl-hydroxyimino-methyl}-imidazo[1,2-a]pyridin-3-yl)-phenyl]-3-(2,2,2-trifluoro-ethyl)-urea], the results for the IC50 on FGFR3 and at VEGFR2 were 0.0097 µM and 0.23 µM, respectively. Besides, the inhibition at 10 µM in assay [1] was determined as 62%. At Ba/F3-TEL-FGFR3 cells, the GI50 was 300 nM.
Consider `CN1CCN(C(=O)CCON=Cc2ccn3c(-c4cccc(NC(=O)NCC(F)(F)F)c4)cnc3c2)CC1` [Compound 1-51, 1-[3-(7-{[3-(4-Methyl-piperazin-1-yl)-3-oxo-propoxyimino]-methyl}-imidazo[1,2-a]pyridin-3-yl)-phenyl]-3-(2,2,2-trifluoro-ethyl)-urea], for which the results for the IC50 on FGFR3 and on VEGFR2 were 0.033 µM and 0.88 µM, respectively. Also, the inhibition at 10 µM in assay [1] came out at 27%. At Ba/F3-TEL-FGFR3 cells, the GI50 stood at 2200 nM.
